Test results taken from publication PMC9145754, “Novel Soloxolone Amides as Potent Anti-Glioblastoma Candidates: Design, Synthesis, In Silico Analysis and Biological Activities In Vitro and In Vivo” (Pharmaceuticals, 2022).

Key:
U87 cells = experiment: Autophagy, MDC staining, U87; type: cell-based, human; details: 24 h
Procedure: Given that pentacyclic triterpenoids can induce tumor cell death not only by the apoptotic pathway but also by triggering autophagy, we next studied whether 12 stimulated autophagy in glioblastoma cells. For this, U87 and U118 cells were incubated with tryptamide 12 at toxic concentrations (2 or 4 µM) for 24 h followed by cell staining with monodansylcadaverine (MDC), a fluorescent dye specifically labeling autophagosomes. […] Considering that autophagy can be associated not only with cell death but also with cytoprotection, its role in the cytotoxicity of 12 in glioblastoma cells was further studied.
To evaluate the ability of 12 to induce autophagy, U87 and U118 cells were seeded at 2.8 × 10^5 cells/well in 6-well plates and incubated under standard conditions overnight followed by their treatment with 12 in amounts of 2 and 4 μM for 24 h. Then, the cells were collected and washed with PBS as described above and resuspended in 500 µL of PBS containing monodancylcadaverine (MDC) at 50 μM. After incubation for 15 min under standard conditions, the cells were washed with PBS and analyzed by flow cytometry. For each sample, 10,000 events were acquired.

U87 glioblastoma cells = experiment: Annexin V-APC/PI apoptosis assay, U87; type: cell-based, human; details: for U87 Q4-2 (right upper quadrant, late apoptotic cells): 24 h, control 5.9%
Procedure: To evaluate which form of cell death was induced by compound 12 in glioblastoma cells, its ability to stimulate apoptosis, necrosis or autophagy was examined.
To quantify the percentage of cells undergoing apoptosis, glioblastoma U87 and U118 cells were seeded in 6-well plates at 2.8 × 10^5 cells/well in complete growth medium and incubated at standard conditions overnight followed by treatment with 12 at 4 µM for 24 h. Thereafter, the cells were harvested by trypsinization (TrypLE Express (Gibco, USA)) and centrifugation at 400 g for 5 min, washed with PBS and stained with 5 µL of Annexin V-APC (Sony Biotechnology Inc., San Jose, CA, USA) and 10 µL of propidium iodide (PI) (Invitrogen, Waltham, MA, USA) for 15 min at room temperature in the dark. After the incubation time, the cells were analyzed using a NovoCyte Flow Cytometer (ACEA Biosciences Inc., San Diego, CA, USA). For each sample, 10,000 events were acquired.

[1] = Toxicity assessment (body weight, organ indexes); type: in vivo, Balb/C nude mice
Procedure: (seven injections were performed in total) and brain tissue was collected 48 h after the last injection of 12 followed by a high-performance liquid chromatography–tandem mass spectrometry (HPLC–MS/MS) analysis of the obtained samples (Figure 3D). This treatment regimen was chosen due to its common usage in the evaluation of antitumor activity of various low-molecular weight compounds in xenograft murine models. […] Before the HPLC–MS/MS analysis, chromatographic conditions and mass spectrometer parameters for detecting both semisynthetic triterpenoid 12 and the internal standard in the multiple reaction monitoring (MRM) mode were optimized. The optimized parameters are given in Supplementary Table S1.
During the experiment, the general status of the animals and body weight was monitored. At the end of the experiment, organs were collected and organ indexes were calculated as (organ weight/body weight) × 100%.

In the case of CC1(C)C(=O)C(C#N)=C[C@]2(C)C3=CC(=O)[C@@H]4[C@@H]5C[C@@](C)(C(=O)NCCc6c[nH]c7ccccc67)CC[C@]5(C)CC[C@@]4(C)[C@]3(C)CC[C@@H]12 [compound 12], the “MDC-positive cells, U87” value (U87 cells; 12 at 2 µM) is reported as 19.57%, the “MDC-positive cells, U87” value (U87 cells; 12 at 4 µM) is reported as 31.95% and the “U87 Q4-2 (right upper quadrant, late apoptotic cells)” value (U87 glioblastoma cells; 12 at 2 µM) is reported as 28%. For the same compound, the “U87 Q4-2 (right upper quadrant, late apoptotic cells)” value (U87 glioblastoma cells; 12 at 4 µM) was 73.4%, the “necrotic cell death (left upper quadrant)” value (U87 glioblastoma cells; U87, 12 for 24 h) was “did not cause necrotic cell death” and the “organ indexes in experimental and control groups” value ([1]; U87 glioblastoma-bearing mice, 20 mg/kg i.p.) was “did not reveal significant differences”. For the same compound, the “mouse body weight compared to untreated mice” value ([1]; nude mice, 50 mg/kg i.p., thrice a week for two weeks) was “did not reveal significant changes”.
